Data published in PubChem BioAssay AID330 (DTP/NCI, 2004).
Several values for one entry are separate records, joined by “and”; a condition that tells them apart may be missing. Equal entries are not always repeated. Inconclusive results and toxic doses are left out. The calls were made as follows: active = survival T/C of 150% or more; inactive = T/C below 125% in these data.

Test system: P388 leukemia ip, CD2F1 mice, survival T/C
Assay: NCI In Vivo Anticancer Drug Screen. Data for tumor model P388 Leukemia (intraperitoneal) in CD2F1 (CDF1) mice
Conditions: endpoint: median survival time, higher = longer survival
In short: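 Mice carrying the transplanted tumor received test compound or vehicle. Survival was recorded in each group, and the value is the treated-group measurement divided by that of the vehicle-treated control group.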

[1] = dose: 5.0 mg/kg/injection, schedule: Q01DX009 (ip), vehicle: saline with Tween-80
[2] = dose: 10.0 mg/kg/injection, schedule: Q01DX009 (ip), vehicle: saline with Tween-80
[3] = dose: 100.0 mg/kg/injection, schedule: Q01DX009 (ip), vehicle: Klucel (hydroxypropylcellulose) (HPC)
[4] = dose: 200.0 mg/kg/injection, schedule: Q01DX009 (ip), vehicle: Klucel (hydroxypropylcellulose) (HPC)
[5] = dose: 25.0 mg/kg/injection, schedule: Q04DX003 (ip), vehicle: saline with Tween-80
[6] = dose: 50.0 mg/kg/injection, schedule: Q01DX005 (ip), vehicle: saline with Tween-80
[7] = dose: 50.0 mg/kg/injection, schedule: Q04DX003 (ip), vehicle: saline with Tween-80
[8] = dose: 100.0 mg/kg/injection, schedule: Q01DX005 (ip), vehicle: saline with Tween-80
[9] = dose: 100.0 mg/kg/injection, schedule: Q04DX003 (ip), vehicle: saline with Tween-80
[10] = dose: 200.0 mg/kg/injection, schedule: Q01DX005 (ip), vehicle: saline with Tween-80
[11] = dose: 50.0 mg/kg/injection, schedule: Q01DX009 (ip), vehicle: Klucel (hydroxypropylcellulose) (HPC)
[12] = dose: 50.0 mg/kg/injection, schedule: Q01DX005 (ip), vehicle: Klucel (hydroxypropylcellulose) (HPC)
[13] = dose: 100.0 mg/kg/injection, schedule: Q01DX005 (ip), vehicle: Klucel (hydroxypropylcellulose) (HPC)
[14] = dose: 200.0 mg/kg/injection, schedule: Q01DX005 (ip), vehicle: Klucel (hydroxypropylcellulose) (HPC)
[15] = dose: 60.0 mg/kg/injection, schedule: Q01DX005 (ip), vehicle: saline with Tween-80
[16] = dose: 25.0 mg/kg/injection, schedule: Q01DX009 (ip), vehicle: Klucel (hydroxypropylcellulose) (HPC)

Measured: T/C

O=C(NC(=S)c1ccc(Br)cc1)Nc1ccccc1
inactive: dose: 2.5 mg/kg/injection, schedule: Q01DX009 (ip), vehicle: saline with Tween-80 90 % of control | [1] 103 % of control | [2] 88 % of control

CCC(c1ccc(OCc2ccccc2)cc1)c1cc2c(cc1OC)OCO2 (stereo unspecified)
inactive: dose: 25.0 mg/kg/injection, schedule: Q01DX005 (ip), vehicle: distilled water + Tween-80 98 % of control | dose: 50.0 mg/kg/injection, schedule: Q01DX005 (ip), vehicle: distilled water + Tween-80 92 % of control | dose: 100.0 mg/kg/injection, schedule: Q01DX005 (ip), vehicle: distilled water + Tween-80 86 % of control | dose: 200.0 mg/kg/injection, schedule: Q01DX005 (ip), vehicle: distilled water + Tween-80 88 % of control

Clc1ncnc2c1ncn2C1CCCO1 (stereo unspecified)
inactive: dose: 50.0 mg/kg/injection, schedule: Q01DX009 (ip), vehicle: saline 110 % of control | dose: 100.0 mg/kg/injection, schedule: Q01DX009 (ip), vehicle: saline 115 % of control

CC1=CC(C)(C)Nc2ccccc21
inactive: [3] 108 % of control | [4] 114 % of control | dose: 400.0 mg/kg/injection, schedule: Q01DX009 (ip), vehicle: Klucel (hydroxypropylcellulose) (HPC) 110 % of control

O=C1CCCC2CCC(=O)C12 (stereo unspecified)
inactive: dose: 100.0 mg/kg/injection, schedule: Q04DX003 (ip), vehicle: other 114 % of control | dose: 200.0 mg/kg/injection, schedule: Q04DX003 (ip), vehicle: other 97 % of control | dose: 400.0 mg/kg/injection, schedule: Q04DX003 (ip), vehicle: other 106 % of control

Oc1cc(O)c2c(c1)Oc1cc(O)cc(O)c1C2
inactive: [5] 100 % of control | [6] 106 % of control | [7] 98 % of control | [8] 109 % of control | [9] 97 % of control | [10] 115 % of control

CC(=O)COc1ccccc1NC(C)=O
inactive: [9] 109 % of control | dose: 200.0 mg/kg/injection, schedule: Q04DX003 (ip), vehicle: saline with Tween-80 90 % of control | dose: 400.0 mg/kg/injection, schedule: Q04DX003 (ip), vehicle: saline with Tween-80 100 % of control

CNc1cc(Cl)c(Cl)cc1[N+](=O)[O-]
inactive: dose: 37.5 mg/kg/injection, schedule: Q04DX003 (ip), vehicle: saline sonified 95 % of control | dose: 75.0 mg/kg/injection, schedule: Q04DX003 (ip), vehicle: saline sonified 95 % of control | dose: 150.0 mg/kg/injection, schedule: Q04DX003 (ip), vehicle: saline sonified 95 % of control

CCOC(=O)c1cnc2cc(C(F)(F)F)ccc2c1Nc1ccc2c(c1)OCO2
inactive: dose: 60.0 mg/kg/injection, schedule: Q01DX005 (ip), vehicle: Klucel (hydroxypropylcellulose) (HPC) 100 % of control | dose: 120.0 mg/kg/injection, schedule: Q01DX005 (ip), vehicle: Klucel (hydroxypropylcellulose) (HPC) 102 % of control | dose: 240.0 mg/kg/injection, schedule: Q01DX005 (ip), vehicle: Klucel (hydroxypropylcellulose) (HPC) 98 % of control

Cc1cc(C(C)(C)C)ccc1SP(Sc1ccc(C(C)(C)C)cc1C)Sc1ccc(C(C)(C)C)cc1C
inactive: [11] 100 % of control | [3] 92 % of control | [4] 92 % of control

O=c1[nH]c2cc(Cl)ccc2n1C1CCN(CCCC(c2ccc(F)cc2)c2ccc(F)cc2)CC1
inactive: dose: 6.25 mg/kg/injection, schedule: Q01DX005 (ip), vehicle: saline with Tween-80 106 % of control | dose: 12.5 mg/kg/injection, schedule: Q01DX005 (ip), vehicle: saline with Tween-80 110 % of control | dose: 25.0 mg/kg/injection, schedule: Q01DX005 (ip), vehicle: saline with Tween-80 110 % of control

CC1C(=O)c2cc3c(cc2CCN(C)Cc2c1ccc1c2OCO1)OCO3 (stereo unspecified)
inactive: [1] 100 % of control | [2] 99 % of control | dose: 12.5 mg/kg/injection, schedule: Q01DX009 (ip), vehicle: saline with Tween-80 90 % of control | [5] 109 % of control | dose: 50.0 mg/kg/injection, schedule: Q01DX009 (ip), vehicle: saline with Tween-80 90 % of control | [7] 104 % of control

[Ni+2].[O-]/C(=N\N=C/c1ccco1)c1ccccc1O.[O-]/C(=N\N=C/c1ccco1)c1ccccc1O
inactive: dose: 50.0 mg/kg/injection, schedule: Q04DX002 (ip), vehicle: saline with Tween-80 86 % of control | dose: 100.0 mg/kg/injection, schedule: Q04DX002 (ip), vehicle: saline with Tween-80 93 % of control | dose: 200.0 mg/kg/injection, schedule: Q04DX002 (ip), vehicle: saline with Tween-80 93 % of control

CC1(C)CC(NCc2ccccc2)=CC(=S)N1
inactive: [12] 100 % of control | [13] 103 % of control | [14] 93 % of control

C=C1C(=O)OC2/C=C(\C)CC/C=C(/CO)C(OC(=O)C(C)(C)O)C(OC(=O)C(C)C)C12 (stereo unspecified)
inactive: dose: 5.0 mg/kg/injection, schedule: Q01DX009 (ip), vehicle: other 107 % of control

Cc1cc2nc(CC(=O)c3ccc4ccccc4c3)c(=O)[nH]c2cc1C
inactive: dose: 15.0 mg/kg/injection, schedule: Q01DX005 (ip), vehicle: saline with Tween-80 91 % of control | dose: 30.0 mg/kg/injection, schedule: Q01DX005 (ip), vehicle: saline with Tween-80 91 % of control | [15] 90 % of control

Nc1cc(=O)[nH]c(O)c1C(=O)O
inactive: dose: 25.0 mg/kg/injection, schedule: Q01DX009 (ip), vehicle: saline with Tween-80 95 % of control

ClCCN1c2ccc3ccccc3c2Sc2ccc3ccccc3c21
inactive: [6] 95 % of control | [8] 89 % of control

CCCCCC[C@H]([C@H](C)O)n1cnc2c(N)ncnc21
inactive: dose: 1.56 mg/kg/injection, schedule: Q01DX009 (ip), vehicle: Klucel (hydroxypropylcellulose) (HPC) 100 % of control | dose: 3.12 mg/kg/injection, schedule: Q01DX009 (ip), vehicle: Klucel (hydroxypropylcellulose) (HPC) 100 % of control | dose: 4.0 mg/kg/injection, schedule: Q01DX005 (ip), vehicle: Klucel (hydroxypropylcellulose) (HPC) 100 % of control | dose: 6.25 mg/kg/injection, schedule: Q01DX009 (ip), vehicle: Klucel (hydroxypropylcellulose) (HPC) 98 % of control | dose: 8.0 mg/kg/injection, schedule: Q01DX005 (ip), vehicle: Klucel (hydroxypropylcellulose) (HPC) 102 % of control | dose: 12.5 mg/kg/injection, schedule: Q01DX009 (ip), vehicle: Klucel (hydroxypropylcellulose) (HPC) 105 % of control | dose: 16.0 mg/kg/injection, schedule: Q01DX005 (ip), vehicle: Klucel (hydroxypropylcellulose) (HPC) 100 % of control | [16] 105 % of control and 96 % of control | dose: 32.0 mg/kg/injection, schedule: Q01DX005 (ip), vehicle: Klucel (hydroxypropylcellulose) (HPC) 104 % of control | [11] 104 % of control and 96 % of control | dose: 64.0 mg/kg/injection, schedule: Q01DX005 (ip), vehicle: Klucel (hydroxypropylcellulose) (HPC) 100 % of control | [3] 98 % of control | [4] 98 % of control

[Cu+2].c1nn[nH]n1
inactive: dose: 12.5 mg/kg/injection, schedule: Q04DX003 (ip), vehicle: Klucel (hydroxypropylcellulose) (HPC) 93 % of control | dose: 25.0 mg/kg/injection, schedule: Q04DX003 (ip), vehicle: Klucel (hydroxypropylcellulose) (HPC) 97 % of control | dose: 50.0 mg/kg/injection, schedule: Q04DX003 (ip), vehicle: Klucel (hydroxypropylcellulose) (HPC) 95 % of control

CC(=O)Oc1ccc(/C(C)=N/NC(=O)C(C)SC(C)C(=O)N/N=C(\C)c2ccc(OC(C)=O)cc2)cc1 (stereo unspecified)
inactive: [12] 108 % of control | [13] 105 % of control | [14] 106 % of control

Cc1nnc(CN2CCOCC2)n1-c1ccc(Cl)cc1C(=O)c1ccccc1
inactive: [16] 86 % of control | [11] 96 % of control | [3] 105 % of control

C[Si](C)(C)Cc1ccccc1C(=O)O
inactive: [15] 100 % of control | dose: 120.0 mg/kg/injection, schedule: Q01DX005 (ip), vehicle: saline with Tween-80 103 % of control | dose: 240.0 mg/kg/injection, schedule: Q01DX005 (ip), vehicle: saline with Tween-80 94 % of control

O=C(CCCl)Nc1c(Cl)cccc1Cl
inactive: [6] 96 % of control | [8] 99 % of control | [10] 96 % of control

CCOC(=O)C1=C(C)N[C@@H](c2ccccc2[N+](=O)[O-])N[C@H]1c1ccccc1[N+](=O)[O-]
inactive: [12] 101 % of control | [13] 101 % of control | [14] 92 % of control
